Mortality and pest or weed control data for 22 molecules are collected here from patent publication US9783532B2, “Molecules having certain pesticidal utilities, and intermediates, compositions, and processes related thereto” (Dow AgroSciences LLC, priority 2013, dated 2017).

The subject of experiment [1] is Beet Armyworm (Spodoptera exigua) ("BAW"). Description: Bioassay on beet armyworm (BAW), 128-well diet tray assay. The format is in vivo. The conditions noted are these: for mortality at 50 µg/cm2: 168 h, 50 μg/cm^2 on artificial diet, second instar BAW larvae, 25° C., five to seven days, average of eight wells, read-out: BAW % Control (or Mortality) rating; for pest or weed control at 50 µg/cm2: activity rating class, read-out: BAW (Biological Results, Insect species). The method in brief:
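Percent mortality, averaged across eight wells, was read after five to seven days at 25° C. under 14:10 light-dark. Each well held one to five second-instar larvae on artificial diet that had been treated with 50 μg/cm^2 compound in 90:10 acetone-water and dried.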

Experiment [2] concerns Cabbage Looper (Trichoplusia ni) ("CL"). Description: Bioassay on cabbage looper (CL), 128-well diet tray assay. The conditions noted are these: for mortality at 50 µg/cm2: 168 h, 50 μg/cm^2 on artificial diet, second instar CL larvae, 25° C., five to seven days, average of eight wells, read-out: CL % Control (or Mortality) rating; for pest or weed control at 50 µg/cm2: activity rating class, read-out: CL (Biological Results, Insect species). The format is in vivo. The method in brief:
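Percent mortality, averaged across eight replicate wells, was read after five to seven days at 25 °C under a 14:10 photoperiod. Each well held one to five second-instar T. ni on diet carrying a dried 50 μg/cm^2 dose applied in acetone-water 90:10.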

Like-named read-outs stand apart in the source and are kept apart here.

In the case of `CC(C)c1ccccc1N1C(=O)CS/C1=N\C(=O)NCCc1cccc(-c2ncn(-c3ccc(OC(F)(F)F)cc3)n2)c1` [P76, (Z)-1-(3-(2-isopropylphenyl)-4-oxothiazolidin-2-ylidene)-3-(3-(1-(4-(trifluoromethoxy)phenyl)-1H-1,2,4-triazol-3-yl)phenethyl)urea], the mortality at 50 µg/cm2 in experiment [1] and in experiment [2] was 50 to 100% in each case.
With `COc1ccc(NC(=S)NC(=O)NCCCc2cccc(-c3ncn(-c4ccc(OC(F)(F)F)cc4)n3)c2)c(C)c1` [PC131, 1-[(4-methoxy-2-methyl-phenyl)carbamothioyl]-3-[3-[3-[1-[4-(trifluoromethoxy)phenyl]-1H-1,2,4-triazol-3-yl]phenyl]propyl]urea], the pest or weed control at 50 µg/cm2 in experiment [1] (Table ABC (PC)) and in experiment [2] (Table ABC (PC)) was 50 to 100% each time.
As for `COc1ccc(NC(=S)NC(=O)NCc2cccc(-c3ncn(-c4ccc(OC(F)(F)F)cc4)n3)c2)c(C)c1` [FB19, 1-[(4-methoxy-2-methyl-phenyl)carbamothioyl]-3-[[3-[1-[4-(trifluoromethoxy)phenyl]-1H-1,2,4-triazol-3-yl]phenyl]methyl]urea], the pest or weed control at 50 µg/cm2 in experiment [1] (Table ABC (FB)) and in experiment [2] (Table ABC (FB)) was 50 to 100% each time.
`CC(C)c1ccccc1N1C(=O)CS/C1=N\C(=O)NCc1ccc(-c2ncn(-c3ccc(OC(F)(F)C(F)(F)F)cc3)n2)cc1` [F18, (Z)-1-(3-(2-isopropylphenyl)-4-oxothiazolidin-2-ylidene)-3-(4-(1-(4-(perfluoroethoxy)phenyl)-1H-1,2,4-triazol-3-yl)benzyl)urea]: the mortality at 50 µg/cm2 in experiment [1] and in experiment [2] was 50 to 100% each time.
For `CCCc1ccc(C)cc1NC(=S)NC(=O)NCCCc1cccc(-c2ncn(-c3ccc(OC(F)(F)F)cc3)n2)c1` [PC125, 1-[(5-methyl-2-propyl-phenyl)carbamothioyl]-3-[3-[3-[1-[4-(trifluoromethoxy)phenyl]-1H-1,2,4-triazol-3-yl]phenyl]propyl]urea], the pest or weed control at 50 µg/cm2 in experiment [1] (Table ABC (PC)) and in experiment [2] (Table ABC (PC)) was 50 to 100% each time.
For the molecule `CCc1cccc(C)c1NC(=S)NC(=O)NCc1cccc(-c2ncn(-c3ccc(OC(F)(F)F)cc3)n2)c1` [FB21, 1-[(2-ethyl-6-methyl-phenyl)carbamothioyl]-3-[[3-[1-[4-(trifluoromethoxy)phenyl]-1H-1,2,4-triazol-3-yl]phenyl]methyl]urea], the pest or weed control at 50 µg/cm2 in experiment [1] (Table ABC (FB)) and in experiment [2] (Table ABC (FB)) was 50 to 100% each time.
For `CCc1ccccc1NC(=S)NC(=O)NCCCCc1ccc(-c2ncn(-c3ccc(OC(F)(F)F)cc3)n2)cc1` [PC145, 1-[(2-ethylphenyl)carbamothioyl]-3-[4-[4-[1-[4-(trifluoromethoxy)phenyl]-1H-1,2,4-triazol-3-yl]phenyl]butyl]urea], the pest or weed control at 50 µg/cm2 in experiment [1] (Table ABC (PC)) and in experiment [2] (Table ABC (PC)) was 50 to 100% each time.
For the molecule `CC(C)c1cc(F)ccc1N1C(=O)CS/C1=N\C(=O)NCCCc1ccc(-c2ncn(-c3ccc(OC(F)(F)F)cc3)n2)cc1` [P103, P1150, (Z)-1-(3-(4-fluoro-2-isopropylphenyl)-4-oxothiazolidin-2-ylidene)-3-(3-(4-(1-(4-(trifluoromethoxy)phenyl)-1H-1,2,4-triazol-3-yl)phenyl)propyl)urea], the mortality at 50 µg/cm2 in experiment [1] and in experiment [2] was 50 to 100% in each case.
Consider `CCc1cccc(C)c1NC(=S)NC(=O)NCCCc1cccc(-c2ncn(-c3ccc(OC(F)(F)F)cc3)n2)c1` [PC127, 1-[(2-ethyl-6-methyl-phenyl)carbamothioyl]-3-[3-[3-[1-[4-(trifluoromethoxy)phenyl]-1H-1,2,4-triazol-3-yl]phenyl]propyl]urea], for which the pest or weed control at 50 µg/cm2 in experiment [1] (Table ABC (PC)) and in experiment [2] (Table ABC (PC)) was 50 to 100% each time.
Take `CC(C)c1ccccc1N1C(=O)CS/C1=N\C(=O)NCCCCc1cccc(-c2ncn(-c3ccc(OC(F)(F)F)cc3)n2)c1` [P172, (Z)-1-(3-(2-isopropylphenyl)-4-oxothiazolidin-2-ylidene)-3-(4-(3-(1-(4-(trifluoromethoxy)phenyl)-1H-1,2,4-triazol-3-yl)phenyl)butyl)urea]: the mortality at 50 µg/cm2 in experiment [1] and in experiment [2] was 50 to 100% in each case.
Take `Cc1ccc(N2C(=O)CS/C2=N\C(=O)NCc2ccc(-c3ncn(-c4ccc(C(F)(F)F)cc4)n3)cc2)c(C(C)C)c1` [P15, (Z)-1-(3-(2-isopropyl-4-methylphenyl)-4-oxothiazolidin-2-ylidene)-3-(4-(1-(4-(trifluoromethyl)phenyl)-1H-1,2,4-triazol-3-yl)benzyl)urea]: the mortality at 50 µg/cm2 in experiment [1] and in experiment [2] was 50 to 100% throughout.
`Cc1ccc(N2C(=O)CS/C2=N\C(=O)NCc2cccc(-c3ncn(-c4ccc(OC(F)(F)F)cc4)n3)c2)c(C(C)C)c1` [FB32, (Z)-1-(3-(2-isopropyl-4-methylphenyl)-4-oxothiazolidin-2-ylidene)-3-(3-(1-(4-(trifluoromethoxy)phenyl)-1H-1,2,4-triazol-3-yl)benzyl)urea]: the pest or weed control at 50 µg/cm2 in experiment [1] (Table ABC (FB)) and in experiment [2] (Table ABC (FB)) was 50 to 100% throughout.
In the case of `CCc1ccccc1NC(=S)NC(=O)NCCCc1ccc(-c2ncn(-c3ccc(OC(F)(F)F)cc3)n2)cc1` [PC93, 1-[(2-ethylphenyl)carbamothioyl]-3-[3-[4-[1-[4-(trifluoromethoxy)phenyl]-1H-1,2,4-triazol-3-yl]phenyl]propyl]urea], the pest or weed control at 50 µg/cm2 in experiment [1] (Table ABC (PC)) and in experiment [2] (Table ABC (PC)) was 50 to 100% throughout.
Take `Cc1ccccc1NC(=S)NC(=O)NCc1cccc(-c2ncn(-c3ccc(OC(F)(F)F)cc3)n2)c1` [FB18, 1-(o-tolylcarbamothioyl)-3-[[3-[1-[4-(trifluoromethoxy)phenyl]-1H-1,2,4-triazol-3-yl]phenyl]methyl]urea]: the pest or weed control at 50 µg/cm2 in experiment [1] (Table ABC (FB)) and in experiment [2] (Table ABC (FB)) was 50 to 100% throughout.
As to `CCS/C(=N\C(=O)NCCc1ccc(-c2ncn(-c3ccc(OC(F)(F)F)cc3)n2)cc1)Nc1cc(C)ccc1C(C)C` [FB66, (Z)-ethyl N-(2-isopropyl-5-methylphenyl)-N′-((4-(1-(4-(trifluoromethoxy)phenyl)-1H-1,2,4-triazol-3-yl)phenethyl)carbamoyl)carbamimidothioate], the pest or weed control at 50 µg/cm2 in experiment [1] (Table ABC (FB)) and in experiment [2] (Table ABC (FB)) was 50 to 100% each time.
Turning to `Cc1ccc(C(C)C)c(N2C(=O)C(F)S/C2=N\C(=O)NCCc2ccc(-c3ncn(-c4ccc(OC(F)(F)F)cc4)n3)cc2)c1` (centres unmarked) [FB64, (Z)-1-(5-fluoro-3-(2-isopropyl-5-methylphenyl)-4-oxothiazolidin-2-ylidene)-3-(4-(1-(4-(trifluoromethoxy)phenyl)-1H-1,2,4-triazol-3-yl)phenethyl)urea], the pest or weed control at 50 µg/cm2 in experiment [1] (Table ABC (FB)) and in experiment [2] (Table ABC (FB)) was 50 to 100% in each case.
Take `COc1ccc(N2C(=O)CS/C2=N\C(=O)NCCCc2cccc(-c3ncn(-c4ccc(OC(F)(F)F)cc4)n3)c2)c(C)c1` [P131, (Z)-1-(3-(4-methoxy-2-methylphenyl)-4-oxothiazolidin-2-ylidene)-3-(3-(3-(1-(4-(trifluoromethoxy)phenyl)-1H-1,2,4-triazol-3-yl)phenyl)propyl)urea]: the mortality at 50 µg/cm2 in experiment [1] and in experiment [2] was 50 to 100% each time.
For `CCc1ccccc1N1C(=O)CS/C1=N\C(=O)NCc1cccc(-c2ncn(-c3ccc(OC(F)(F)F)cc3)n2)c1` [FB29, (Z)-1-(3-(2-ethylphenyl)-4-oxothiazolidin-2-ylidene)-3-(3-(1-(4-(trifluoromethoxy)phenyl)-1H-1,2,4-triazol-3-yl)benzyl)urea], the pest or weed control at 50 µg/cm2 in experiment [1] (Table ABC (FB)) and in experiment [2] (Table ABC (FB)) was 50 to 100% each time.
For the molecule `Cc1ccc(C(C)C)c(N2CCCS/C2=N\C(=O)NCCc2ccc(-c3ncn(-c4ccc(OC(F)(F)F)cc4)n3)cc2)c1` [P59, (Z)-1-(3-(2-isopropyl-5-methylphenyl)-1,3-thiazinan-2-ylidene)-3-(4-(1-(4-(trifluoromethoxy)phenyl)-1H-1,2,4-triazol-3-yl)phenethyl)urea], the mortality at 50 µg/cm2 in experiment [1] and in experiment [2] was 50 to 100% throughout.
In the case of `Cc1ccc(C(C)C)c(N2C(=O)CS/C2=N\C(=O)NCCCCc2cccc(-c3ncn(-c4ccc(OC(F)(F)F)cc4)n3)c2)c1` [P176, (Z)-1-(3-(2-isopropyl-5-methylphenyl)-4-oxothiazolidin-2-ylidene)-3-(4-(3-(1-(4-(trifluoromethoxy)phenyl)-1H-1,2,4-triazol-3-yl)phenyl)butyl)urea], the mortality at 50 µg/cm2 in experiment [1] and in experiment [2] was 50 to 100% throughout.
As for `COc1ccc(N2C(=O)CS/C2=N\C(=O)NCCCc2ccc(-c3ncn(-c4ccc(OC(F)(F)F)cc4)n3)cc2)c(C)c1` [P105, (Z)-1-(3-(4-methoxy-2-methylphenyl)-4-oxothiazolidin-2-ylidene)-3-(3-(4-(1-(4-(trifluoromethoxy)phenyl)-1H-1,2,4-triazol-3-yl)phenyl)propyl)urea], the mortality at 50 µg/cm2 in experiment [1] and in experiment [2] was 50 to 100% throughout.
`CC(C)c1ccccc1NC(=S)NC(=O)NCCCCc1ccc(-c2ncn(-c3ccc(OC(F)(F)F)cc3)n2)cc1` [PC146, 1-[(2-isopropylphenyl)carbamothioyl]-3-[4-[4-[1-[4-(trifluoromethoxy)phenyl]-1H-1,2,4-triazol-3-yl]phenyl]butyl]urea]: the pest or weed control at 50 µg/cm2 in experiment [1] (Table ABC (PC)) and in experiment [2] (Table ABC (PC)) was 50 to 100% in each case.
